Data from patent US10251865B2, “Method of activating regulatory T cells with alpha-2B adrenergic receptor agonists” (Allergan, Inc., priority 2010, dated 2019).

Assays:
[1] = tested on: SNL Rat Model of Allodynic Neuropathic Pain; test: Allodynia reversal (Von Frey) in the SNL Rat Model of Allodynic Neuropathic Pain; assay type: in vivo; conditions: for % Allodynia Reversal 24 hr post / % Allodynia Reversal 23 day post / % Allodynia Reversal 7 day post: SNL rats; for blockade of the (long-term) analgesic effect by the immunosuppressant FK506: spinal nerve ligation model, result in words
Experimental: The SNL (or Chung) Model in the rat is an accepted standard animal model of neuropathic pain and is thought to mimic the human causalgia condition with respect to symptoms (guarding behavior, mechanical allodynia) and alleviation by pharmacological agents. […] The SNL Model is performed by tightly ligating the L-5 and L-6 spinal nerves, which produces tactile allodynia or sensitivity to light touch as described (Kim and Chung, 1992). Male sprague-dawley rats (100-120 grams; Charles River, Wilmington, Mass.) were anesthetized through inhalation of an isoflurane/oxygen mix. The surgical site was shaved and prepared with betadine. An incision was made from the thoracic vertebra XIII toward down the sacrum. The muscle was separated from the spinal vertebra (left side) at the L4-S2 levels. The L6 vertebra was located and then the transverse process was carefully removed with a small rongeur to visually identify the L4-L6 spinal nerves. The L5 and L6 spinal nerves was isolated and tightly ligated with 6-0 silk thread. A complete homeostasis was confirmed and then the wound was sutured. The duration of the surgery was approximately 20 minutes. A small amount of antibiotic ointment was applied to the incised area and the animals were transferred to a plastic recovery cage under a regulated heat-temperature lamp. Animals were not given any topical or local anesthetics post-operatively because they will inhibit the development of the pain syndrome, which is the phenomenon to be studied.
The allodynia is quantitated in the animals having received the Chung surgery by stimulation with a series of 8 Von Frey hairs on the mid planter area of the surgical hind paw in the up-down manner as described in the literature (Dixon, 1980). Von Frey hairs are applied in an up-down manner depending on the response until the 50% threshold is established. The Von Frey hairs are applied to the plantar surface of the surgical paw with just enough force to bend them. A positive response is recorded if the paw is sharply withdrawn. Eight Von Frey hairs were used 3.61, 3.84, 4.08, 4.31, 4.56, 4.74, 4.93 and 5.18 yielding a gram force of 0.25-15 grams.
[formula] • Mean±SEM: • Mean=average of allodynia reversals • SEM=STDEV/SQ ROOT of n
Testing with compounds is done 2-3 weeks after surgery to establish stable allodynia. In all experimental animals, baseline measurements were taken prior to drug administration and then at 24 hours and 5-23 days post dosing with Alzet osmotic minipump. The investigator was blinded to the identity of the drug groups. The % allodynia reversal is calculated as: [(Postdrug threshold−Predrug threshold)/(15-Predrug threshold)]×100.
Compound B was formulated in 50% DMSO (dimethyl sulfoxide; Sigma, St. Louis, Mo.). This solution was dosed orally TID at a dose of 0.3 or 1 mg/kg. For dosing in the osmotic minipumps (Model 1007D, Alzet Corp., Palo Alto, Calif.) the compound was loaded onto the pumps set to deliver a final dose of either 1 or 3 mg/kg/day. The vehicle for these studies is 50% DMSO.
Compound C was formulated first in 100% DMSO (Sigma, St. Louis, Mo.), then diluted down in 30% DMSO for a 10 mg/ml solution; 15% DMSO for a 3 mg/ml solution and further dilutions were made in water. The compound was dosed orally TID at a dose of either 0.3 or 1 mg/kg for a total daily dose of 1 or 3 mg/kg/day, respectively.

[2] = tested on: tear TNF-alpha and IL17; test: Dry eye desiccating stress in mice, adoptive transfer of CD4+ T cells, recipient tear cytokines; assay type: in vivo; conditions: donor mice treated 3 mg/kg/day for 10 days during desiccating stress; CD4+ T cells transferred to nude mice, FIG. 11
Source text: C57BL/6 (C57BL/6NTac) and B6.Cg/NTac-Foxn1nuNE9 were purchased from Taconic, Inc. (Germantown, N.Y.). Mice were used at 6-10 weeks of age. Animal studies approval was obtained from the Allergan Animal Care and Use Committee. All studies adhered to the Association for Research in Vision and Ophthalmology statement for the Use of Animals in Ophthalmic and Vision Research. As described in the literature dry eye was induced by treating mice with subcutaneous injections of scopolamine hydrobromide (0.5 mg/0.2 ml; Sigma-Aldrich, St. Louis, Mo.) three times a day alternating between the left and right flanks (Neiderkorn et al, 2006). […] Histological analysis was done by staining […] samples with antibody to CD4 and H&E staining to quantify goblet cells and T cells in the conjunctiva. […]
The levels of cytokines were measured with a sensitive, fluorescent multiplex immunobead assay (Luminex; Biosource-Invitrogen, Carlsbad, Calif.). […] Cytokine levels in samples were analyzed by using the corresponding Millipore cytokine Beadmate pairs. […] Beads were washed, resuspended in 125 μl of Beadlyte buffer, and analyzed by Luminex 100 instrument (Luminex Corporation, Austin, Tex.). The mean fluorescence intensities obtained from 50 beads per cytokine minimum were analyzed using Upstate Beadview software. […]

[3] = 1 mg/kg/day TID oral for 5 days + 3 mg/kg FK506 BID SC for 5 days, mean % MPE ± SEM
[4] = 1 mg/kg/day TID oral for 5 days, mean % MPE ± SEM
[5] = 1 mg/kg/day osmotic minipump for 7 days + 3 mg/kg FK506 BID SC for 5 days
[6] = 1 mg/kg/day osmotic minipump, treatment for 7 days

SMILES	% Allodynia Reversal 24 hr post [1, 3]	% Allodynia Reversal 23 day post [1, 3]	% Allodynia Reversal 24 hr post [1, 4]	% Allodynia Reversal 23 day post [1, 4]	blockade of the (long-term) analgesic effect by the immunosuppressant FK506 [1]	recipient tear level of IL-17 [2]	recipient tear level of TNFα [2]	% Allodynia Reversal 24 hr post [1, 5]	% Allodynia Reversal 7 day post [1, 5]	% Allodynia Reversal 24 hr post [1, 6]	% Allodynia Reversal 7 day post [1, 6]
Clc1cccc(CNC2=NCCN2)c1Cl [Compound C]	49 ± 13.15 %	21.82 ± 4.26%	66.06 ± 10.71 %	81.48 ± 6.00 %	able to block	–	–	–	–	–	–
CCC1=CC(Cc2c[nH]cn2)CCC1 (stereo not drawn) [Compound B]	–	–	–	–	blockable	significantly reduced	significantly reduced	57.06 ± 14.52 %	16.43 ± 19.42%	78.50 ± 7.85 %	73.35 ± 11.95 %
